# Columns and labels:
# [1] = Solubilization of active in 3 wt % polymer solution (high-throughput robot, UV/VIS); assay type: physicochemical
# Method: Solubilization measurements were carried out with a highthroughput screening robot. This setup dosed 10 mg solid active and […] of the respective 3 wt % liquid polymer solution (in Cl-PAC water D) into wells on a micro titer plate. After the addition of stirring bars and 24 hours incubation time the samples were filtrated via polypropylene filters in order to separate dissolved active and its solid formatted. The amount of solubilized active was determined via UV/VIS spectroscopy.
# [2] = at 20° C.; cited from earlier work
structure (smiles),measurement,setting,value
"CC(O)(Cn1cncn1)c1ccc(Oc2ccc(Cl)cc2)cc1C(F)(F)F (centres unmarked) [2-[4-(4-chlorophenoxy)-2-(trifluoromethyl)phenyl]-1-(1H-1,2,4-triazol-1-yl)propan-2-ol]","Solubility of the triazole fungicide 2-[4-(4-chlorophenoxy)-2-(trifluoromethyl)phenyl]-1-(1H-1,2,4-triazol-1-yl)propan-2-ol",[1]; Active without polymer,15 ppm
NC(=O)N1c2ccccc2C=Cc2ccccc21 [cabamazepine],Solubility of cabamazepine,[1]; Active without polymer,181 ppm
N#Cc1nn(-c2c(Cl)cc(C(F)(F)F)cc2Cl)c(N)c1[S+]([O-])C(F)(F)F (centres unmarked) [fipronil],Solubility of fipronil,[1],12 ppm
Cn1cc(C(=O)Nc2ccccc2-c2cc(F)c(F)c(F)c2)c(C(F)F)n1 [fluxapyroxad],water solubility,[2],4 µg/mL
same,Solubility of Xemium ® (fluxapyroxad),[1]; Active without polymer,10 ppm
